Measured values taken from patent US20260062422A1 (Halda Therapeutics OpCo, Inc., priority 2022, published 2026).

Tests used:
[1] = test system: 22RV1 cells overexpressing FL-AR (22RV1 Parental(FL-AR^hi)); assay: 22RV1 apoptosis assay (Caspase-Glo 3/7), cells overexpressing FL-AR; type: cell-based; details: Caspase 3/7 Glo assay
Experimental: (§1) 22RV1 Parental and 22RV1/AR cells were seeded in 25 μL growth media in poly-d lysine coated black clear-bottom 384-well plates at 5000 cells/well with Phenol Red Free RPMI containing 10% charcoal stripped serum and 1% PenStrep. Following seeding, plates were spun at 300×g for 30 seconds, then equilibrated to room temperature for 30 minutes, and moved into the incubator. 24 hours after seeding, compounds were titrated in 100% DMSO and diluted in growth medium. 25 μL of the compound/medium mixture was added to cells, bringing the total volume in each well to 50 μL. DMSO was used as a negative control.
After treatment, plates were spun at 300×g for 30 seconds, then cultured at 37° C. with 5% CO2 for 24 or 48 hours in a humidified tissue culture incubator. After 24 or 48 hours of treatment, Caspase 3/7 activity was quantified with Caspase-Glo 3/7 reagent (Promega). Plates were equilibrated to room temperature for 30 minutes, then 25 μL of Caspase-Glo 3/7 reagent was added to cells, bringing the total volume in each well to 75 μL. After reagent was added, plates were spun at 300×g for 30 seconds then mixed on a shaker for two minutes at 500 rpm and then incubated in the dark at room temperature for one hour. Following incubation, plates were spun at 300×g for 30 seconds, sealed with an optical adhesive cover, and luminescence reads were measured with an EnVision Plate Reader. […]

[2] = test system: LnCaP95 Parental cells; assay: Cellular growth inhibition assay for LnCaP95 Parental cells, CellTiter-Glo; type: cell-based; details: CellTiterGlo assay, 6 days
Experimental: as §1, with “T47D LnCap95” for “22RV1”, “T47D LnCap95 AR-FL KO” for “22RV1/AR”, “2500” for “5000”, “pen strep.” for “PenStrep.”
After treatment, plates were spun at 300×g for 30 seconds, then cultured at 37° C. with 5% CO2 for 6 days in a humidified tissue culture incubator. On Day 6 of treatment, cell viability was quantified with CellTiter-Glo 2.0 reagent (Promega). Plates were equilibrated to room temperature for 30 minutes, then 25 μL of CellTiter-Glo 2.0 reagent was added to cells, bringing the total volume in each well to 75 μL. After reagent was added, plates were spun at 300×g for 30 seconds then mixed on a shaker for two minutes at 500 rpm and then incubated in dark at room temperature for 10 minutes. Following incubation, plates were spun at 300×g for 30 seconds, sealed with an optical adhesive cover, and luminescence readings were measured with an EnVision Plate Reader. […]

In the case of `Cc1sc2c(c1C)C(c1ccc(OC3CC4(CCN(c5ncc(C(=O)N[C@H]6C(C)(C)[C@H](Oc7ccc(C#N)c(Cl)c7)C6(C)C)cn5)CC4)C3)cc1)=N[C@@H](Cc1ncco1)c1nnc(C)n1-2` [Compound I-49, N-[3-(3-chloro-4-cyano-phenoxy)-2,2,4,4-tetramethyl-cyclobutyl]-2-[2-[4-[(9S)-4,5,13-trimethyl-9-(oxazol-2-ylmethyl)-3-thia-1,8,11,12-tetrazatricyclo[8.3.0.02,6]trideca-2(6),4,7,10,12-pentaen-7-yl]phenoxy]-7-azaspiro[3.5]nonan-7-yl]pyrimidine-5-carboxamide], the “apoptosis in 22RV1 FL-AR^hi cells as compared to parental 22RV1 FL-AR^low cells” value [1] is reported as “highly apoptotic”, the EC50 ([1]; Homo sapiens, 22RV1 cells overexpressing FL-AR (FL-AR^hi), 24 or 48 hours) is reported as 0.126 µM and the “activity in parental LnCaP95 cells compared to AR knockout cells” value ([2]; parental vs LnCaP95 AR-FL KO cells) is reported as “enhanced activity in parental LnCaP95 cells”. It also gave a GI50 ([2]; LNCaP-95, 144 h, parental LnCaP95 cells) of 0.037 µM.
